Results from US8476197B2, “Aminopropenoates as fungicides” (priority 2009, dated 2013).
Where two headings read alike, the source gives them in different places. Marks after values point to notes of the source that are not given here.

Log P (pH 2.7)	SMILES	other results
1.78^[a]	COC(=O)C(C#N)=C(NC(C)C(N)=O)c1sc(C)nc1C(F)(F)F (racemic) [Compound 668]	
3.11^[a]	CCOC(=O)C(C#N)=C(NC(C)COC)c1sc(C)nc1C(F)(F)F (racemic) [Compound 678]	
3.29^[a]	CCOC(=O)C(C#N)=C(NC(C)C(=O)OCC)c1sc(C)nc1C(F)(F)F (racemic) [Compound 679]	
3.64^[a]	CCOC(=O)C(C#N)=C(NC(C(=O)OC)C(C)C)c1sc(C)nc1C(F)(F)F (racemic) [Compound 681]	
4.35^[a]	CCOC(=O)C(C#N)=C(NC(C)CC(C)C)c1cc(C)oc1C (racemic) [Compound 779]	
4.54^[a]	CCOC(=O)C(C#N)=C(NC(C)CC(C)C)c1sccc1C(F)(F)F (racemic) [Compound 781]	
4.29^[a]	CCOC(=O)C(C#N)=C(NC(C)CC(C)C)c1sc(C)nc1C(F)(F)F (racemic) [Compound 784]	
2.82^[a]	CCOC(=O)C(C#N)=C(NC(C)C(F)(F)F)c1cn(C)nc1OC (racemic) [Compound 808]	
3.75^[a]	CCOC(=O)C(C#N)=C(NC(C)C(F)(F)F)c1sc(Cl)nc1Cl (racemic) [Compound 809]	
4.11^[a]	CCOC(=O)C(C#N)=C(NC(C)C(F)(F)F)c1cc(Cl)sc1Cl (racemic) [Compound 810]	
3.64^[a]	CCOC(=O)C(C#N)=C(NC(C)C(F)(F)F)c1cn(C)cc1C(F)(F)F (racemic) [Compound 812]	
5.48^[a]	CCCCCCC(C)NC(=C(C#N)C(=O)OCC)c1sccc1C(F)(F)F (racemic) [Compound 815]	
5.22^[a]	CCCCCCC(C)NC(=C(C#N)C(=O)OCC)c1sc(C)nc1C(F)(F)F (racemic) [Compound 818]	
3.67^[a]	CCOC(=O)C(C#N)=C(NC(C)CC)c1nc(Cl)ccc1Cl (racemic) [Compound 837]	
3.64^[a]	CCOC(=O)C(C#N)=C(NC(C)CC)c1cnc(Cl)cc1Cl (racemic) [Compound 838]	
3.78^[a]	CCOC(=O)C(C#N)=C(NC(C)CC)c1ncc(Cl)cc1Cl (racemic) [Compound 839]	
3.17^[a]	CCOC(=O)C(C#N)=C(NC(C)CC)c1cnccc1C(F)(F)F (racemic) [Compound 843]	

Log P (pH 2.7)	SMILES	other results
5.05^[a]	CCCCCC(C)NC(=C(C#N)C(=O)OCC)c1sccc1C(F)(F)F (racemic) [Compound 849]	
4.81^[a]	CCCCCC(C)NC(=C(C#N)C(=O)OCC)c1sc(C)nc1C(F)(F)F (racemic) [Compound 858]	
3.69^[a]	CCOC(=O)C(C#N)=C(NC(C)C1CC1)c1cc(Cl)ncc1Cl (racemic) [Compound 896]	
3.2^[a]	CCOC(=O)C(C#N)=C(NC(C)C1CC1)c1cnccc1C(F)(F)F (racemic) [Compound 897]	
3.92^[a]	CCOC(=O)C(C#N)=C(NC(C)C1CC1)c1cc(Cl)cc(Cl)n1 (racemic) [Compound 900]	
3.56^[a]	CCOC(=O)C(C#N)=C(NC(C)C1CC1)c1cn(C)cc1C(F)(F)F (racemic) [Compound 901]	
3.61^[a]	CCOC(=O)C(C#N)=C(NC(C)C1CC1)c1ccnc(Cl)c1Cl (racemic) [Compound 902]	
3.37^[a]	CCOC(=O)C(C#N)=C(NC(C)C(C)(C)C)c1cn(C)nc1C(F)F (racemic) [Compound 918]	
4.46^[a]	CCOC(=O)C(C#N)=C(NC(C)C(C)(C)C)c1sccc1C(F)(F)F (racemic) [Compound 919]	
3.83^[a]	COC(=O)C(C#N)=C(NC(C)C(C)(C)C)c1sc(C)nc1C(F)(F)F (racemic) [Compound 920]	
4.41^[a]	CCOC(=O)C(C#N)=C(NC(C)C(C)(C)C)c1sccc1Br (racemic) [Compound 921]	
4.21^[a]	CCOC(=O)C(C#N)=C(NC(C)C(C)(C)C)c1sc(C)nc1C(F)(F)F (racemic) [Compound 922]	
3.84^[a]	CCOC(=O)C(C#N)=C(NC(C)C(C)C)c1cn(C)cc1C(F)(F)F (racemic) [Compound 987]	
4.06^[a]	CCOC(=O)C(C#N)=C(NC(C)C(C)C)c1c(C(F)(F)F)nn(C)c1Cl (racemic) [Compound 1001]	
3.39^[a]	CCOC(=O)C(C#N)=C(NC(C)C(C)C)c1cn(C)nc1C(C)(F)F (racemic) [Compound 1002]	
4.7^[a]	C=CCCCC(C=C)NC(=C(C#N)C(=O)OCC)c1sccc1C(F)(F)F (racemic) [Compound 1014]	
4.82^[a]	C=CCCCC(C=C)NC(=C(C#N)C(=O)OCC)c1ncc(C(F)(F)F)cc1Cl (racemic) [Compound 1015]	

Further lines, the compound ahead of its results:

SMILES	Log P (pH 2.7)	other results
COC(=O)C(C#N)=C(NC(C(=O)OC)C(C)C)c1sc(C)nc1C(F)(F)F (racemic) [Compound 666]	3.29^[a]	
CCOC(=O)C(C#N)=C(NC(C)C(=O)Nc1ccc2ccccc2c1)c1sccc1Br (racemic) [Compound 669]	3.89^[a]	
CCOC(=O)C(C#N)=C(NC(C)COc1c(C)cccc1C)c1sccc1Br (racemic) [Compound 670]	4.86^[a]	
CCOC(=O)C(C#N)=C(NC(C)COC)c1sccc1Br (racemic) [Compound 671]	3.17^[a]	
CCOC(=O)C(C#N)=C(NC(C)C(=O)OCC)c1sccc1Br (racemic) [Compound 672]	3.33^[a]	
CCOC(=O)C(C#N)=C(NC(C(=O)OC)C(C)C)c1cn(C)nc1C(F)F (racemic) [Compound 674]	2.84^[a]	
CCOC(=O)C(C#N)=C(NC(C)C(=O)Nc1ccc2ccccc2c1)c1sc(C)nc1C(F)(F)F (racemic) [Compound 676]	3.99^[a]	
CCOC(=O)C(C#N)=C(NC(C)COc1c(C)cccc1C)c1sc(C)nc1C(F)(F)F (racemic) [Compound 677]	4.7^[a]	
CCOC(=O)C(C#N)=C(NC(C)CC(C)C)c1cccnc1Cl (racemic) [Compound 778]		Log P (pH 7.5): 3.62
CCOC(=O)C(C#N)=C(NC(C)CC(C)C)c1cn(C)nc1C(F)F (racemic) [Compound 780]	3.46^[a]	
COC(=O)C(C#N)=C(NC(C)CC(C)C)c1sc(C)nc1C(F)(F)F (racemic) [Compound 782]	3.9^[a]	
CCOC(=O)C(C#N)=C(NC(C)CC(C)C)c1sccc1Br (racemic) [Compound 783]	4.46^[a]	
CCOC(=O)C(C#N)=C(NC(C)CC(C)C)c1ccsc1Br (racemic) [Compound 785]	4.41^[a]	
CCOC(=O)C(C#N)=C(NC(C)C(F)(F)F)c1cccnc1OC (racemic) [Compound 807]		Log P (pH 2.3): 3.05; Log P (pH 7.5): 3.04
CCCCCCC(C)NC(=C(C#N)C(=O)OCC)c1c(C)nn(C)c1F (racemic) [Compound 813]	4.51^[a]	
CCCCCCC(C)NC(=C(C#N)C(=O)OCC)c1sccc1Br (racemic) [Compound 814]	5.48^[a]	
CCCCCCC(C)NC(=C(C#N)C(=O)OC)c1sc(C)nc1C(F)(F)F (racemic) [Compound 816]	4.86^[a]	
CCCCCCC(C)NC(=C(C#N)C(=O)OCC)c1cn(C)nc1C(F)F (racemic) [Compound 817]	4.36^[a]	
CCCCCCC(C)NC(=C(C#N)C(=O)OCC)c1cccnc1Cl (racemic) [Compound 819]		Log P (pH 2.3): 4.53; Log P (pH 7.5): 4.55
CCCCCCC(C)NC(=C(C#N)C(=O)OCC)c1ccsc1Br (racemic) [Compound 820]	5.41^[a]	
CCOC(=O)C(C#N)=C(NC(C)CC)c1cccnc1C(F)(F)F (racemic) [Compound 840]	3.27^[a]	

SMILES	Log P (pH 2.7)	other results
CCOC(=O)C(C#N)=C(NC(C)CC)c1nc(SC)ncc1Br (racemic) [Compound 841]	3.89^[a]	
CCOC(=O)C(C#N)=C(NC(C)CC)c1cccnc1C(F)F (racemic) [Compound 842]	2.87^[a]	
CCCCCC(C)NC(=C(C#N)C(=O)OCC)c1sccc1Br (racemic) [Compound 846]	5.03^[a]	
CCCCCC(C)NC(=C(C#N)C(=O)OC)c1sc(C)nc1C(F)(F)F (racemic) [Compound 852]	4.41^[a]	
CCCCCC(C)NC(=C(C#N)C(=O)OCC)c1cn(C)nc1C(F)F (racemic) [Compound 855]	3.94^[a]	
CCCCCC(C)NC(=C(C#N)C(=O)OCC)c1cccnc1Cl (racemic) [Compound 859]		Log P (pH 7.5): 4.1
CCOC(=O)C(C#N)=C(NC(C)C1CC1)c1cn(C)nc1C(F)(F)F (racemic) [Compound 894]	3.29^[a]	
CCOC(=O)C(C#N)=C(NC(C)C1CC1)c1cn(C)nc1C(C)F (racemic) [Compound 895]	2.84^[a]	
CCOC(=O)C(C#N)=C(NC(C)C1CC1)c1ccncc1Cl (racemic) [Compound 898]	3.03^[a]	
CCOC(=O)C(C#N)=C(NC(C)C1CC1)c1cccnc1C(F)F (racemic) [Compound 899]	2.9^[a]	
CCOC(=O)C(C#N)=C(NC(C)C1CC1)c1ccncc1Br (racemic) [Compound 903]	3^[a]	
CCOC(=O)C(C#N)=C(NC(C)C1CC1)c1ccncc1F (racemic) [Compound 904]	2.8^[a]	
CCOC(=O)C(C#N)=C(NC(C)C1CC1)c1ccncc1C(F)(F)F (racemic) [Compound 905]	3.2^[a]	
CNC(=O)C(C#N)=C(NC(C)C1CC1)c1cccnc1Cl (racemic) [Compound 908]		Log P (pH 2.3): 2.2^[c]; 2.2^[b]; Log P (pH 7.5): 2.2^[c]; 2.2^[b]
CCOC(=O)C(C#N)=C(NC(C)C(C)(C)C)c1ccsc1Br (racemic) [Compound 923]	4.36^[a]	
CCOC(=O)C(C#N)=C(NC(C)C(C)C)c1c(C(F)F)nn(C)c1F (racemic) [Compound 1000]	3.53^[a]	
C=CCCCC(C=C)NC(=C(C#N)C(=O)OCC)c1c(C)nn(C)c1Cl (racemic) [Compound 1013]	4.04^[a]	
C=CCCCC(C=C)NC(=C(C#N)C(=O)OCC)c1cn(C)nc1C(F)F (racemic) [Compound 1016]	3.73^[a]	
C=CCCCC(C=C)NC(=C(C#N)C(=O)OCC)c1sccc1Br (racemic) [Compound 1017]	4.67^[a]	
C=CCCCC(C=C)NC(=C(C#N)C(=O)OCC)c1ccsc1Br (racemic) [Compound 1018]	4.67^[a]	
